According to patent publication US10770169B2, “Method of providing a treatment to a subject based on a dynamic pathway map” (THE REGENTS OF THE UNIVERSITY OF CALIFORNIA, priority 2010, dated 2020):

Tested on: panel of 55 breast cancer cell lines
Test: Cell growth inhibition assay (Cell Titer Glo, 72 h, 9 doses; GI50, TGI, LC50)
Assay type: cell-based, human
[1] = cell line 600MPE, value is the negative log10 of mol/L
[2] = cell line AU565, value is the negative log10 of mol/L

O=c1[nH]c(=O)n([C@H]2C[C@H](O)[C@@H](CO)O2)cc1F [5-FdUR]
GI50 (AU565 cell line, censored GI50 values, value is the negative log10 of mol/L): 4.97 | GI50 (BT20 cell line, censored GI50 values, value is the negative log10 of mol/L): 3.49 | GI50 (BT474 cell line, censored GI50 values, value is the negative log10 of mol/L): 3.29 | GI50 (BT483 cell line, censored GI50 values, value is the negative log10 of mol/L): 4.13 | GI50 (CAMA1 cell line, censored GI50 values, value is the negative log10 of mol/L): 3.92 | GI50 (HCC38 cell line, censored GI50 values, value is the negative log10 of mol/L): 4.00 | GI50 (HCC70 cell line, censored GI50 values, value is the negative log10 of mol/L): 3.67 | GI50 (HCC1143 cell line, censored GI50 values, value is the negative log10 of mol/L): 4.02 | GI50 (HCC1187 cell line, censored GI50 values, value is the negative log10 of mol/L): 3.81 | GI50 (HCC1395 cell line, censored GI50 values, value is the negative log10 of mol/L): 3.60 | GI50 (HCC1419 cell line, censored GI50 values): 2.73 | GI50 (HCC1428 cell line, censored GI50 values, value is the negative log10 of mol/L): 3.91 | GI50 (HCC1500 cell line, censored GI50 values, value is the negative log10 of mol/L): 4.21 | GI50 (HCC1806 cell line, censored GI50 values, value is the negative log10 of mol/L): 4.02 | GI50 (HCC1937 cell line, censored GI50 values, value is the negative log10 of mol/L): 3.37 | GI50 (HCC1954 cell line, censored GI50 values, value is the negative log10 of mol/L): 3.99 | GI50 (HCC2185 cell line, censored GI50 values, value is the negative log10 of mol/L): 3.12 | GI50 (HCC3153 cell line, censored GI50 values, value is the negative log10 of mol/L): 3.24 | GI50 (LY2 cell line, censored GI50 values, value is the negative log10 of mol/L): 5.01 | GI50 (MDAMB134VI cell line, censored GI50 values, value is the negative log10 of mol/L): 3.15 | GI50 (MDAMB175VII cell line, censored GI50 values, value is the negative log10 of mol/L): 4.69 | GI50 (MDAMB231 cell line, censored GI50 values, value is the negative log10 of mol/L): 3.10 | GI50 (MDAMB468 cell line, censored GI50 values, value is the negative log10 of mol/L): 3.22 | GI50 (SKBR3 cell line, censored GI50 values, value is the negative log10 of mol/L): 3.66 | GI50 (SUM52PE cell line, censored GI50 values, value is the negative log10 of mol/L): 3.49 | GI50 (SUM149PT cell line, censored GI50 values, value is the negative log10 of mol/L): 4.11 | GI50 (SUM159PT cell line, censored GI50 values, value is the negative log10 of mol/L): 4.49 | GI50 (SUM225CWN cell line, censored GI50 values, value is the negative log10 of mol/L): 3.71 | GI50 (SUM1315MO2 cell line, censored GI50 values, value is the negative log10 of mol/L): 3.13 | GI50 (T47D cell line, censored GI50 values, value is the negative log10 of mol/L): 3.48 | GI50 (UACC812 cell line, censored GI50 values, value is the negative log10 of mol/L): 4.34 | GI50 (ZR75B cell line, censored GI50 values, value is the negative log10 of mol/L): 5.16 | GI50 (ZR751 cell line, censored GI50 values, value is the negative log10 of mol/L): 5.27 | GI50 [1]: 4.11 | GI50 [2]: 5.18 | GI50 (cell line BT474, value is the negative log10 of mol/L): 3.17 | GI50 (cell line BT483, value is the negative log10 of mol/L): 4.48 | GI50 (cell line BT549, value is the negative log10 of mol/L): 3.74 | GI50 (cell line CAMA1, value is the negative log10 of mol/L): 3.51 | GI50 (cell line HCC38, value is the negative log10 of mol/L): 3.72 | GI50 (cell line HCC70, value is the negative log10 of mol/L): 4.05 | GI50 (cell line HCC202, value is the negative log10 of mol/L): 4.41 | GI50 (cell line HCC1143, value is the negative log10 of mol/L): 3.69 | GI50 (cell line HCC1187, value is the negative log10 of mol/L): 3.18 | GI50 (cell line HCC1395, value is the negative log10 of mol/L): 3.13 | GI50 (cell line HCC1419, value is the negative log10 of mol/L): 3.77 | GI50 (cell line HCC1428, value is the negative log10 of mol/L): 4.99 | GI50 (cell line HCC1500, value is the negative log10 of mol/L): 4.23 | GI50 (cell line HCC1806, value is the negative log10 of mol/L): 4.59 | GI50 (cell line HCC1937, value is the negative log10 of mol/L): 3.64 | GI50 (cell line HCC1954, value is the negative log10 of mol/L): 4.78 | GI50 (cell line HCC2185, value is the negative log10 of mol/L): 3.42 | GI50 (cell line HCC3153, value is the negative log10 of mol/L): 3.45 | GI50 (cell line LY2, value is the negative log10 of mol/L): 4.41 | GI50 (cell line MCF7, value is the negative log10 of mol/L): 4.39 | GI50 (cell line MDAMB134V): 2.01 | GI50 (cell line MDAMB157, value is the negative log10 of mol/L): 3.11 | GI50 (cell line MDAMB175V, value is the negative log10 of mol/L): 3.95 | GI50 (cell line MDAMB231, value is the negative log10 of mol/L): 3.75 | GI50 (cell line MDAMB361, value is the negative log10 of mol/L): 3.84 | GI50 (cell line MDAMB436): 2.97 | GI50 (cell line MDAMB453, value is the negative log10 of mol/L): 4.01 | GI50 (cell line MDAMB468, value is the negative log10 of mol/L): 3.71 | GI50 (cell line SKBR3, value is the negative log10 of mol/L): 4.48 | GI50 (cell line SUM52PE, value is the negative log10 of mol/L): 4.40 | GI50 (cell line SUM149PT, value is the negative log10 of mol/L): 4.14 | GI50 (cell line SUM159PT, value is the negative log10 of mol/L): 4.68 | GI50 (cell line SUM185PE): 2.53 | GI50 (cell line SUM1315MO, value is the negative log10 of mol/L): 3.37 | GI50 (cell line UACC812, value is the negative log10 of mol/L): 4.02 | GI50 (cell line UACC893, value is the negative log10 of mol/L): 3.30 | GI50 (cell line ZR75B, value is the negative log10 of mol/L): 4.95 | GI50 (cell line ZR751, value is the negative log10 of mol/L): 4.51

O=C1NC(=O)/C(=C/c2ccc3nccc(-c4ccncc4)c3c2)S1 [GSK1059615B]
GI50 (cell line 600MPE, censored GI50 values, value is the negative log10 of mol/L): 6.31 | GI50 [1]: 6.31 | GI50 (cell line AU565, censored GI50 values, value is the negative log10 of mol/L): 6.32 | GI50 [2]: 6.32 | GI50 (cell line BT474, censored GI50 values, value is the negative log10 of mol/L): 6.80 | GI50 (cell line BT549, censored GI50 values, value is the negative log10 of mol/L): 5.73 | GI50 (cell line CAMA1, censored GI50 values, value is the negative log10 of mol/L): 5.77 | GI50 (cell line HCC38, censored GI50 values, value is the negative log10 of mol/L): 6.11 | GI50 (cell line HCC70, censored GI50 values, value is the negative log10 of mol/L): 6.75 | GI50 (cell line HCC202, censored GI50 values, value is the negative log10 of mol/L): 7.23 | GI50 (cell line HCC1143, censored GI50 values, value is the negative log10 of mol/L): 6.26 | GI50 (cell line HCC1187, censored GI50 values, value is the negative log10 of mol/L): 6.48 | GI50 (cell line HCC1395, censored GI50 values, value is the negative log10 of mol/L): 5.61 | GI50 (cell line HCC1419, censored GI50 values, value is the negative log10 of mol/L): 6.59 | GI50 (cell line HCC1428, censored GI50 values, value is the negative log10 of mol/L): 6.28 | GI50 (cell line HCC1500, censored GI50 values, value is the negative log10 of mol/L): 5.71 | GI50 (cell line HCC1806, censored GI50 values, value is the negative log10 of mol/L): 5.82 | GI50 (cell line HCC1937, censored GI50 values, value is the negative log10 of mol/L): 6.09 | GI50 (cell line HCC1954, censored GI50 values, value is the negative log10 of mol/L): 6.63 | GI50 (cell line HCC2185, censored GI50 values, value is the negative log10 of mol/L): 6.89 | GI50 (cell line HCC3153, censored GI50 values, value is the negative log10 of mol/L): 5.48 | GI50 (cell line LY2, censored GI50 values, value is the negative log10 of mol/L): 5.82 | GI50 (cell line MCF7, censored GI50 values, value is the negative log10 of mol/L): 5.53 | GI50 (cell line MDAMB134VI, censored GI50 values, value is the negative log10 of mol/L): 6.25 | GI50 (cell line MDAMB175VII, censored GI50 values, value is the negative log10 of mol/L): 6.18 | GI50 (cell line MDAMB231, censored GI50 values, value is the negative log10 of mol/L): 5.21 | GI50 (cell line MDAMB361, censored GI50 values, value is the negative log10 of mol/L): 5.84 | GI50 (cell line MDAMB436, censored GI50 values, value is the negative log10 of mol/L): 5.88 | GI50 (cell line MDAMB453, censored GI50 values, value is the negative log10 of mol/L): 6.52 | GI50 (cell line MDAMB468, censored GI50 values, value is the negative log10 of mol/L): 5.96 | GI50 (cell line SKBR3, censored GI50 values, value is the negative log10 of mol/L): 6.71 | GI50 (cell line SUM52PE, censored GI50 values, value is the negative log10 of mol/L): 6.89 | GI50 (cell line SUM149PT, censored GI50 values, value is the negative log10 of mol/L): 6.01 | GI50 (cell line SUM159PT, censored GI50 values, value is the negative log10 of mol/L): 6.73 | GI50 (cell line SUM185PE, censored GI50 values, value is the negative log10 of mol/L): 7.13 | GI50 (cell line SUM1315MO2, censored GI50 values, value is the negative log10 of mol/L): 6.49 | GI50 (cell line T47D, censored GI50 values, value is the negative log10 of mol/L): 6.58 | GI50 (cell line UACC812, censored GI50 values, value is the negative log10 of mol/L): 6.62 | GI50 (cell line UACC893, censored GI50 values, value is the negative log10 of mol/L): 6.89 | GI50 (cell line ZR75B, censored GI50 values, value is the negative log10 of mol/L): 6.51 | GI50 (cell line ZR751, censored GI50 values, value is the negative log10 of mol/L): 5.87 | GI50 (cell line ZR7530, censored GI50 values, value is the negative log10 of mol/L): 6.82
